Non-standard residues stand in square brackets, D forms with d. No end group written: not given here. *: point of attachment. FITC = O=C1OC2(c3ccc(O)cc3Oc3cc(O)ccc32)c2ccc(NC(=S)*)cc21; pY = N[C@@H](Cc1ccc(OP(=O)(O)O)cc1)C(=O)O
Tested on: human T cells
Experiment: Intracellular IFN-γ and TNF-α production by primary human T cells from PBMCs (flow cytometry)
Type: cell-based
Settings: anti-CD3/anti-CD28 with Brefeldin A, 6 hours; vs vehicle alone
Experimental: ITK deficiency is known to enhance the development of regulatory T cells (Tregs) (Elmore et al., 2020, Owen et al., 2019) so the peptide inhibitor was tested to determine whether inhibition of the ITK: SLP76Y145 interactions using SLP76pTYR would induce Tregs. First, the frequency of Tregs was examined by expression of CD4^+ and FoxP3^+ (FIG. 18A). Next, total mouse T cells were stimulated with anti-CD3 (Sugie et al., 2004) in the presence of either SLP76pTYR, nonspecific peptide, or vehicle alone for 5 to 24 hours, and cells were harvested and examined for the presence of Tregs (CD4^+CD25^+FoxP3^+). […] Next, the effects of SLP76pTYR peptide on human PBMC samples from healthy human patients was investigated. T cells from these patients were stimulated with anti-CD3 (OKT3) (Karimi et al., 2005) for 5 minutes in the presence of SLP76pTYR or vehicle alone. […]
More specifically, FIGS. 18A-18F depict Novel peptide SLP76pTYR specifically targets SLP76: ITK signaling and enhances Treg cell development. […] (FIG. 18C) Quantification of three experiments as in (A) (FIG. 18D) Cell lysates were obtained from mouse T cells stimulated with anti-CD3 and anti-CD28 in the presence of SLP76pTYR, or vehicle alone. […] Intracellular IFN-γ and TNF-α expression by CD8^+ and CD4+ T cells was determined by flow cytometry. […]

Q: Which results are given for “FITC Dye ^132NEEEEAPVEDDADpYEPPPSNDEEA^155-TAT ({FITC}-NEEEEAPVEDDAD[pY]EPPPSNDEEAGRKKRRQRRRPQ) [SLP76pTYR]”?
A: IFN-γ production: significantly reduced IFN-γ and TNF-α production; TNF-α production: significantly reduced IFN-γ and TNF-α production
